Assay results reported in publication PMC3760131 (Acta Crystallographica Section D: Biological Crystallography, 2013).
Where two headings read alike, the source gives them in different places. Where a SMILES comes first, the peptide text is derived from it.

Experiments:
XIAP BIR3 = molecular target: T1, XIAP BIR3 (Homo sapiens, UniProt P98170); assay: BIR3 TR-FRET assay (displacement of AVPI-derived peptide); type: binding
T1 construct: 6×histidine-tagged BIR2 (amino acids 124–240) or BIR3 (amino acids 241–356) domain of the XIAP protein
T1 sequence (P98170 241-356): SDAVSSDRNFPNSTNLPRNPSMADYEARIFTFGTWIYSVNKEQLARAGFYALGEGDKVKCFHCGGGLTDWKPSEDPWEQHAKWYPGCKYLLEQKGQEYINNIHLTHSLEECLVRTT
Experimental: (§1) Time-resolved fluorescence resonance energy transfer (TR-FRET) signals were measured 1 h later at room temperature. Compound potency was assessed at ten serially diluted concentrations. The percentage of inhibition at each concentration was determined to generate an IC50 value for each compound.

XIAP BIR2 = molecular target: T2, XIAP BIR2 (Homo sapiens, UniProt P98170); assay: BIR2 TR-FRET assay (displacement of AVPI-derived peptide); type: binding
T2 construct: 6×histidine-tagged BIR2 (amino acids 124–240) or BIR3 (amino acids 241–356) domain of the XIAP protein
T2 sequence (P98170 124-240): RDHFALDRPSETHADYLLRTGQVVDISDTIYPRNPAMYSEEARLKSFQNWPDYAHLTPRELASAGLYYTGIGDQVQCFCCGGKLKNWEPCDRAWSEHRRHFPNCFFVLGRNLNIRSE
Experimental: as §1

[1] = molecular target: 6×histidine-tagged BIR2 (amino acids 124–240) domain of the XIAP protein (UniProt P98170); assay: AlphaScreen or HTRF; TR-FRET competition: 10 nM 6xHis BIR2 or BIR3 domain with 20 nM …-(epsilon-biotin)-OH; europium streptavidin (1.5 nM) and allophycocyanin anti-histidine antibody (15 nM); 50 mM Tris-HCl pH 7.5, 100 mM NaCl, 1 mM DTT, 0.1 mg/ml BSA; 45 min at 310 K, read 1 h later at room temperature; ten concentrations; Ki from IC50 by Cheng-Prusoff
Sequence of 6×histidine-tagged BIR2 (amino acids 124–240) domain of the XIAP protein (P98170 124-240): as above

[2] = molecular target: the molecule itself; assay: crystal structure; apo BIR2 crystals, sitting drop, 1.7-1.9 M ammonium sulfate, 125 mM bis-tris propane pH 7.0, room temperature; two molecules (A and B)
[3] = FRET-based displacement of AVPI-derived peptide from 6xHis BIR3 (241-356), Ki from IC50 by Cheng-Prusoff, read-out: BIR3 K i
[4] = FRET-based displacement of AVPI-derived peptide from 6xHis BIR2 (124-240), Ki from IC50 by Cheng-Prusoff, read-out: BIR2 K i

Row | Ki (XIAP BIR3; [3]) [µM] | Ki (XIAP BIR2; [4]) [µM] | Molecule | other results
1 |  |  | CC[C@H](C)[C@H](NC(=O)[C@H](C)N)C(=O)N[C@@H](C)C(=O)N[C@H](C(=O)O)C(C)C [AIAV] (H-AIAV-OH) | Ki (XIAP BIR3): 28.2 µM; Ki (XIAP BIR2): 1.87 µM
2 | 0.08 | 3.11 | CC[C@H](C)[C@H](NC(=O)[C@@H]1CCCN1C(=O)[C@@H](NC(=O)[C@H](C)N)[C@@H](C)CC)C(=O)O [AIPI] (H-AIPI-OH) | 
3 | 5.2 | 3.52 | CC[C@H](C)[C@H](NC(=O)[C@H](CCCNC(=N)N)NC(=O)[C@H](CCSC)NC(=O)[C@H](C)N)C(=O)O [AMRI] (H-AMRI-OH) | 
4 | 32.9 | 2.41 | CSCC[C@H](NC(=O)[C@H](C)N)C(=O)N[C@@H](CCCNC(=N)N)C(=O)N[C@H](C(=O)O)C(C)C [AMRV] (H-AMRV-OH) | 
5 |  | > 53 | C[C@H](N)C(=O)N[C@@H](CCCNC(=N)N)C(=O)N1CCC[C@H]1C(=O)N[C@@H](CCCNC(=N)N)C(=O)O [ARPR] (H-ARPR-OH) | 
6 | > 47 | 1.7 | C[C@H](N)C(=O)N[C@H](C(=O)N[C@@H](C)C(=O)N[C@@H](C)C(=O)O)[C@@H](C)O [ATAA] (H-ATAA-OH) | activity against BIR3 (in words) (XIAP BIR3; TR-FRET assay): inactive
7 | 32.3 | 2.17 | CC(C)[C@H](NC(=O)[C@H](C)NC(=O)[C@@H](NC(=O)[C@H](C)N)[C@@H](C)O)C(=O)O [ATAV] (H-ATAV-OH) | 
8 | 26.1 | 1.87 | CC(C)[C@H](NC(=O)[C@H](C)NC(=O)[C@@H](NC(=O)[C@H](C)N)C(C)C)C(=O)O [AVAV] (H-AVAV-OH) | 
9 |  | 2.54 | CC(C)[C@H](NC(=O)[C@@H](NC(=O)[C@@H](NC(=O)[C@H](C)N)C(C)C)C(C)C)C(=O)O [AVVV] (H-AVVV-OH) | 
10 | 12.5 | 34 | CC[C@H](C)[C@H](NC(=O)[C@@H]1CCCN1C(=O)[C@H](CCSC)NC(=O)[C@@H](N)CO)C(=O)O [SMPI] (H-SMPI-OH) | 
11 | > 47 | 12.3 | CSCC[C@H](NC(=O)[C@@H](N)CO)C(=O)N[C@@H](CCCNC(=N)N)C(=O)N[C@H](C(=O)O)C(C)C [SMRV] (H-SMRV-OH) | 
12 |  |  | SMRV | Ki [1]: 12.2 µM
13 |  |  | XIAP BIR2(152–236;C202A,C213G) (domain or fragment, human, printed as hBIR2; Two molecules (A and B) in the crystal; also called hBIR2(152–236;C202A,C213G); BIR2 domain of XIAP; source: E. coli Rosetta2(DE3)pLysS, purified (Ni-NTA, TEV cleavage, Superdex 75); not shown: His6, N-terminal, cleaved) GTIYPRNPAMYSEEARLKSFQNWPDYAHLTPRELASAGLYYTGIGDQVQCFACGGKLKNWEPGDRAWSEHRRHFPNCFFVLGRNLN | binding result [2]: binds
